In ChEMBL document CHEMBL1201862, “PubChem BioAssay data set” (2004):
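These data come from cells grown in 96-well plates and exposed to compound for 48 hours at five concentrations. At the GI50, growth is halved.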 The source made the active and inactive calls. No stated cut-off is given here; in the data, active = GI50 up to about 1.1 µM and inactive = higher.

Experiments:
Assay in all cases: NCI tumour cell line growth inhibition, 48 h
SK-MEL-2 = test system: SK-MEL-2
HCT-116 = test system: HCT-116
SF-539 = test system: SF-539
KM12 = test system: KM12
A549 = test system: A549
CCRF-CEM = test system: CCRF-CEM
NCI-H23 = test system: NCI-H23
TK-10 = test system: TK-10
NCI-H522 = test system: NCI-H522
SK-MEL-5 = test system: SK-MEL-5
OVCAR-3 = test system: OVCAR-3
UO-31 = test system: UO-31
SF-295 = test system: SF-295
SNB-19 = test system: SNB-19
ACHN = test system: ACHN
RXF 393 = test system: RXF 393
OVCAR-5 = test system: OVCAR-5
UACC-62 = test system: UACC-62
HCC 2998 = test system: HCC 2998
IGROV-1 = test system: IGROV-1

Measured: GI50

CCOC(=O)c1c(N2CCCC2)[nH]c(=O)c(C(c2cccs2)c2c(O)c(C(=O)OCC)c(N3CCCC3)[nH]c2=O)c1O
inactive: SK-MEL-2 > 100 µM | HCT-116 > 100 µM | SF-539 > 100 µM | KM12 > 100 µM | A549 > 100 µM | CCRF-CEM 78.2 µM | NCI-H23 > 100 µM | TK-10 > 100 µM | NCI-H522 > 100 µM | SK-MEL-5 > 100 µM | OVCAR-3 > 100 µM | UO-31 > 100 µM | SF-295 > 100 µM | SNB-19 > 100 µM | ACHN > 100 µM | RXF 393 > 100 µM | OVCAR-5 > 100 µM | UACC-62 > 100 µM | HCC 2998 > 100 µM

O=C(Nc1ccc(F)cc1)c1cc2c(cc1Cl)Sc1nccn1S2(=O)=O
inactive: SK-MEL-2 > 100 µM | HCT-116 35.6 µM | SF-539 37 µM | KM12 > 100 µM | A549 > 100 µM | CCRF-CEM > 100 µM | NCI-H522 76.9 µM | SK-MEL-5 14.9 µM | OVCAR-3 84.5 µM | SF-295 28.9 µM | SNB-19 40.1 µM | ACHN 63.1 µM | RXF 393 31.7 µM | OVCAR-5 > 100 µM | IGROV-1 > 100 µM | HCC 2998 > 100 µM

O=C1CCCSC(=O)N1Cc1ccccc1
inactive: SK-MEL-2 > 100 µM | HCT-116 > 100 µM | SF-539 > 100 µM | KM12 > 100 µM | A549 > 100 µM | CCRF-CEM > 100 µM | NCI-H23 > 100 µM | TK-10 > 100 µM | NCI-H522 > 100 µM | SK-MEL-5 > 100 µM | OVCAR-3 > 100 µM | SF-295 > 100 µM | SNB-19 > 100 µM | ACHN > 100 µM | RXF 393 > 100 µM | OVCAR-5 > 100 µM | UACC-62 > 100 µM | IGROV-1 > 100 µM | HCC 2998 > 100 µM

O=C1c2cc3c(cc2CC12Cc1cc4c(cc1C2)CCC4)CCC3
inactive: SK-MEL-2 > 100 µM | HCT-116 > 100 µM | SF-539 > 100 µM | KM12 > 100 µM | A549 > 100 µM | CCRF-CEM > 100 µM | NCI-H23 > 100 µM | TK-10 > 100 µM | NCI-H522 > 100 µM | SK-MEL-5 > 100 µM | OVCAR-3 > 100 µM | UO-31 > 100 µM | SF-295 > 100 µM | SNB-19 > 100 µM | ACHN > 100 µM | RXF 393 > 100 µM | OVCAR-5 > 100 µM | IGROV-1 > 100 µM | HCC 2998 > 100 µM

Cc1cc2c(cc1C(=O)CCC(=O)O)CC1(C2)Cc2cc(C)c(C(=O)CCC(=O)O)cc2C1
inactive: SK-MEL-2 > 100 µM | HCT-116 > 100 µM | SF-539 > 100 µM | KM12 > 100 µM | A549 > 100 µM | CCRF-CEM > 100 µM | NCI-H23 > 100 µM | TK-10 > 100 µM | NCI-H522 > 100 µM | SK-MEL-5 > 100 µM | OVCAR-3 > 100 µM | UO-31 > 100 µM | SF-295 > 100 µM | SNB-19 > 100 µM | ACHN > 100 µM | RXF 393 > 100 µM | OVCAR-5 > 100 µM | IGROV-1 > 100 µM | HCC 2998 > 100 µM

CCOC(=O)C1Nc2ccc([N+](=O)[O-])cc2[C@H]2OCC[C@@H]12 (stereo partly specified)
inactive: SK-MEL-2 > 100 µM | HCT-116 > 100 µM | SF-539 > 100 µM | KM12 > 100 µM | A549 > 100 µM | CCRF-CEM > 100 µM | NCI-H23 > 100 µM | TK-10 > 100 µM | NCI-H522 > 100 µM | SK-MEL-5 > 100 µM | OVCAR-3 > 100 µM | SF-295 > 100 µM | SNB-19 > 100 µM | ACHN > 100 µM | RXF 393 > 100 µM | OVCAR-5 > 100 µM | UACC-62 > 100 µM | IGROV-1 > 100 µM | HCC 2998 > 100 µM
